Test results published in patent US11065240B2, “Drug combinations to treat multiple myeloma” (Exelixis, Inc., priority 2014, dated 2021).

Tests used:
[1] = test system: 5TGM1 mouse myeloma cells; assay: 5TGM1 murine multiple myeloma model, study 1: bone lesions and tumor burden; type: in vivo; details: for bone protective properties/effects: cabozantinib 10 or 30 mg/kg PO QD; for frequency of soft tissue lesions: cabozantinib both doses (10 and 30 mg/kg PO QD)
Method: Cabozantinib (XL184) is obtained from the Exelixis in powder form. It is dissolved in sterile water to a concentration of 1 mg/ml for dosing at 10 mg/kg or 30 mg/kg. The dosing solution is prepared daily within one hour before dosing. The undissolved test compound will be stored at ambient or room temperature in a dry environment such as in a dessicator. The test compound is administered daily by oral gavage. Bortezomib is obtained from LC Laboratories (Boston, Mass., USA) in powder form and dissolved in EtOH. The stock solution is stored at -20° C. The bortezomib dosing solutions are prepared fresh for every dosing as follows: 25 μl of the stock solution of 25 mg/ml of bortezomib (LC Laboratories, Boston, Mass., USA) in EtOH and 25 μl of EtOH is diluted in 3.61 ml of 0.9% NaCl to obtain the concentration of 0.17 mg/ml. The dosing volume is 3 ml/kg, resulting in the dose 0.5 mg/kg. Bortezomib is administered intraperitoneally twice a week. 5TGM1 mouse multiple myeloma cells are obtained from the Department of Molecular Medicine, University of Texas Health Science Center at San Antonio. Cell culturing is performed according to standard procedures. 5TGM1 mouse myeloma cells (2×10^6 cells in 0.1 ml of PBS) are inoculated into the tail vein of the mice at day 0. Viability of the cells will be determined before and after the inoculations. Cancer cell inoculation will cause the mice to develop a bone disease typical for multiple myeloma. Blood samples will be collected from the saphenous vein before the inoculation of cancer cells, at days 15, 22, 35 and at sacrifice. The serum samples will be prepared within one hour of sampling, and stored at -70° C. Serum paraprotein IgG2b will be analyzed using mouse IgG2b ELISA quantitation kit (Bethyl Laboratories Inc, Montgomery, Tex., USA). Serum […] activity and PINP concentration will be analyzed using Mouse TRAP and Mouse PINP kits (IDS, Boldon, UK). The development of the myeloma bone disease is monitored by x-ray radiography at day 35. Animals will be anesthethized by isoflurane and x-rayed in a prone position with the Faxitron Specimen Radiographic System MX-20 D12 (Faxitron Corp. Illinois, USA) using Faxitron Dicom 3.0-software. At least one radiograph (both hind limbs) per animal will be taken on each x-ray occasion (31 kV, 10 seconds, magnification 2×). The lesion number and lesion area in hind limbs will be determined from the images with MetaMorph image analysis software. Statistical analysis will be performed with statistical software R (version 2.14.0 or newer, www.r-project.org) or OriginPro (version 8.6 or newer, OriginLab, Northampton, Mass., USA). The mean and standard deviation of each parameter will be determined. All statistical analyses will be performed as two-sided tests. Normal distribution and homogeneity of variance will be checked before further analyses. In case of violating these assumptions, either log transformation or other appropriate transformation (e.g. square root, reciprocal) will be applied. If the assumptions are fulfilled as such or after transformation, Oneway ANOVA will be used for end-point parameters to assess whether the values obtained between groups are statistically different (with p<0.05) followed by Tukey test for comparison against the control group. If the assumptions are not fulfilled even after the transformations described above, rank-transformation will be applied and the non-parametric Kruskal-Wallis test followed by Mann-Whitney U-test will be used. Linear mixed effects model will be used for repeated measurements like biochemical markers. Female C57BL/KaLwRij mice were allocated to treatment groups (n=15 per group) with equivalent average body weights. Four experimental groups were utilized in each of 2 studies: a vehicle control group, and groups receiving single agent bortezomib (0.5 mg/kg ip twice a week) or cabozantinib (10 mg/kg, PO QD). […]

[2] = test system: 5TGM1 mouse myeloma cells; assay: 5TGM1 murine multiple myeloma model, study 2: overall survival, alone or in combination; type: in vivo; details: for prolongation of overall survival (OS) compared to vehicle, statistical significance / median survival time: bortezomib 0.5 mg/kg ip twice a week, cabozantinib 10 mg/kg PO QD; for median survival time: vehicle 36 d, FIG. 1
Method: Cabozantinib (XL184) is obtained from the Exelixis in powder form. It is dissolved in sterile water to a concentration of 1 mg/ml for dosing at 10 mg/kg or 30 mg/kg. The dosing solution is prepared daily within one hour before dosing. The undissolved test compound will be stored at ambient or room temperature in a dry environment such as in a dessicator. The test compound is administered daily by oral gavage.
Bortezomib is obtained from LC Laboratories (Boston, Mass., USA) in powder form and dissolved in EtOH. The stock solution is stored at −20° C. The bortezomib dosing solutions are prepared fresh for every dosing as follows: 25 μl of the stock solution of 25 mg/ml of bortezomib (LC Laboratories, Boston, Mass., USA) in EtOH and 25 μl of EtOH is diluted in 3.61 ml of 0.9% NaCl to obtain the concentration of 0.17 mg/ml. The dosing volume is 3 ml/kg, resulting in the dose 0.5 mg/kg. Bortezomib is administered intraperitoneally twice a week.
5TGM1 mouse multiple myeloma cells are obtained from the Department of Molecular Medicine, University of Texas Health Science Center at San Antonio. Cell culturing is performed according to standard procedures. 5TGM1 mouse myeloma cells (2×10^6 cells in 0.1 ml of PBS) are inoculated into the tail vein of the mice at day 0. Viability of the cells will be determined before and after the inoculations. Cancer cell inoculation will cause the mice to develop a bone disease typical for multiple myeloma.
Statistical analysis will be performed with statistical software R (version 2.14.0 or newer, www.r-project.org) or OriginPro (version 8.6 or newer, OriginLab, Northampton, Mass., USA). The mean and standard deviation of each parameter will be determined. All statistical analyses will be performed as two-sided tests. Normal distribution and homogeneity of variance will be checked before further analyses. In case of violating these assumptions, either log transformation or other appropriate transformation (e.g. square root, reciprocal) will be applied. If the assumptions are fulfilled as such or after transformation, Oneway ANOVA will be used for end-point parameters to assess whether the values obtained between groups are statistically different (with p<0.05) followed by Tukey test for comparison against the control group. If the assumptions are not fulfilled even after the transformations described above, rank-transformation will be applied and the non-parametric Kruskal-Wallis test followed by Mann-Whitney U-test will be used. Linear mixed effects model will be used for repeated measurements like biochemical markers.
Female C57BL/KaLwRij mice were allocated to treatment groups (n=15 per group) with equivalent average body weights. Four experimental groups were utilized in each of 2 studies: a vehicle control group, and groups receiving single agent bortezomib (0.5 mg/kg ip twice a week) or cabozantinib (10 mg/kg, PO QD). Study 1 also included a higher dose cabozantinib group (30 mg/kg, PO QD), and study 2 included a combination group: bortezomib (0.5 mg/kg ip twice a week) plus cabozantinib (10 mg/kg, PO QD). […]
On day 0, animals were inoculated with 5TGM1 mouse myeloma cells by IV administration. […] Body weights were determined twice a week and blood samples were collected on days—1, 15, 22, and 34 for analysis of paraprotein (IgG2b) and TRACP 5b. In study 1 the development of osteolytic lesions was detected by radiography at the end of the study. […]

[3] = study 1, 30 mg/kg PO QD, radiography at end of study
[4] = study 1, bortezomib 0.5 mg/kg ip twice a week
[5] = study 1, both the 10 and 30 mg/kg doses PO QD

Row | SMILES | bone-protective and anti-tumor effects (conclusion) ([1]; murine model of MM, conclusions) | mean area of osteolytic lesions [1, 3] | total area of osteolytic lesions [1, 3] | necrotic tumor area in bone ([1]; study 1, 10 and 30 mg/kg PO QD) | bone protective properties/effects [1, 4] | frequency of soft tissue lesions [1, 4] | start of the rise in serum IgG2b ([1]; study 1, both cabozantinib-treated groups (10 and 30 mg/kg), vs vehicle control) | relative IgG2b at sacrifice ([1]; study 1, both cabozantinib-treated groups, vs vehicle control) | osteoclast counts at the tumor-bone interface [1, 5] | serum TRACP 5b values [1, 5] | relative bone area ([1]; study 1, histomorphometry, vs control) | prolongation of overall survival (OS) compared to vehicle, statistical significance [2] | median survival time [2] | prolongation of overall survival (conclusion, comparator not stated) ([2]; conclusions) | serum IgG2b levels ([1]; study 1, female C57BL/KaLwRij mice, bortezomib 0.5 mg/kg ip twice a week, vs vehicle)
1 | COc1cc2nccc(Oc3ccc(NC(=O)C4(C(=O)Nc5ccc(F)cc5)CC4)cc3)c2cc1OC [cabozantinib, N-(4-{[6,7-bis(methyloxy)quinolin-4-yl]oxy}phenyl)-N′-(4-fluorophenyl)cyclopropane-1,1-dicarboxamide] | showed both bone-protective and anti-tumor effects | reduced | reduced | dose dependently increased | exhibited bone protective effects | decreased | started earlier than vehicle control | a significant difference was not observed | reduced | reduced | did not differ from control | statistically significant | 48 days | statistically-significant prolongation | –
2 | CC(C)C[C@H](NC(=O)[C@H](Cc1ccccc1)NC(=O)c1cnccn1)B(O)O [bortezomib, reference compound] | – | – | – | – | did not show bone protective properties | decreased | – | – | – | – | – | not | 43 days | – | reduced
